The source of these data is paper PMC8228141, “Antiprotozoal Nor-Triterpene Alkaloids from Buxus sempervirens L” (Antibiotics, 2021).

Where “and” joins values, the source holds several entries; their conditions need not be identical. Equal entries are not always repeated. Where two headings read alike, the source gives them in different places.

Series [1] has as its system Trypanosoma brucei rhodesiense (Tbr) (bloodstream trypomastigotes, STIB 900 strain). On the set-up: method as in PMID 29738470. Conditions: cited from earlier work.
Series [2] concerns Plasmodium falciparum (Pf) (intraerythrocytic forms, NF54 strain). Description: In vitro antiplasmodial activity. The series is classed as cell-based. The conditions noted are these: for SI Pf (selectivity index): cytotoxicity L6 vs Pf. As for the experimental part:
(§1) After isolation, all alkaloids were tested in vitro for antiplasmodial and antitrypanosomal activity against Plasmodium falciparum (Pf) and Trypanosoma brucei rhodesiense (Tbr). Furthermore, to assess their selectivity against the parasites, cytotoxicity against L6 rat skeletal myoblasts, as mammalian control cells, was tested (Table 4).
(§2) In vitro assays for the bioactivity of the isolated Buxus-alkaloids against Tbr (bloodstream trypomastigotes, STIB 900 strain), Trypanosoma cruzi (Tc) (amastigotes, Tulahuen C4 strain), Leishmania donovani (Ldo) (amastigotes, MHOM-ET-67/L82 strain) and Pf (intraerythrocytic forms, NF54 strain), and cytotoxicity tests against mammalian cells (L6-cell line from rat-skeletal myoblasts), were performed at the Swiss Tropical and Public Health Institute (Swiss TPH, Basel, Switzerland) according to established standard protocols.

Series [3] deals with L6 rat skeletal myoblasts. The series can be described thus: Cytotoxicity against mammalian control cells. The series is classed as cell-based. How it is done:
as §1, §2

The subject of series [4] is Trypanosoma brucei rhodesiense (Tbr) (bloodstream trypomastigotes, STIB 900 strain). Description: In vitro antitrypanosomal activity. The series is classed as cell-based. Conditions: for Tbr IC50 / IC50: STIB 900 strain; for SI Tbr (selectivity index): cytotoxicity L6 vs Tbr. As for the experimental part:
as §1
In vitro assays for the bioactivity of the isolated Buxus-alkaloids against Tbr (bloodstream trypomastigotes, STIB 900 strain), Trypanosoma cruzi (Tc) (amastigotes, Tulahuen C4 strain), Leishmania donovani (Ldo) (amastigotes, MHOM-ET-67/L82 strain) and Pf (intraerythrocytic forms, NF54 strain), and cytotoxicity tests against mammalian cells (L6-cell line from rat-skeletal myoblasts), were performed at the Swiss Tropical and Public Health Institute (Swiss TPH, Basel, Switzerland) according to established standard protocols. […] Such a pattern of activity was also observed in other studies.

Series [5] can be described thus: Cytotoxicity against mammalian control cells. The conditions noted are these: rat. The series is classed as cell-based, rat. How it is done: as §1, §2
In series [6] the test system is Plasmodium falciparum (Pf) (intraerythrocytic forms, NF54 strain). Also on record: method as in PMID 24838073. Conditions: previous study; cited from earlier work.
The mark [7] stands for this setting: NF54 strain, mean of n = 2 (fluctuation range) or * n = 3 (SD).
The mark [8] stands for this setting: NF54 strain, read-out: Pf IC50 (in parentheses) (converted).
Setting [9] is: mean of n = 2 (fluctuation range) or * n = 3 (SD).
Setting [10] is: read-out: Tbr IC50 (in parentheses) (converted).
The mark [11] stands for this setting: Plasmodium falciparum, NF54, NF54 strain, mean of n = 2 (fluctuation range) or * n = 3 (SD), read-out: Pf IC50.
The mark [12] stands for this setting: Plasmodium falciparum, NF54, NF54 strain, read-out: Pf IC50 (in parentheses) (converted).
Where [13] appears, read: Trypanosoma brucei, mean of n = 2 (fluctuation range) or * n = 3 (SD), read-out: Tbr IC50.
The mark [14] stands for this setting: Trypanosoma brucei, read-out: Tbr IC50 (in parentheses) (converted).
Setting [15] is: L6 rat skeletal myoblast cells, L6 cell line, mean of n = 2 (fluctuation range) or * n = 3 (SD), read-out: Cytotox. IC50.
The mark [16] stands for this setting: L6 rat skeletal myoblast cells, L6 cell line, read-out: Cytotox. IC50 (in parentheses) (converted).

In general, IC50 refers to the point on the concentration scale where inhibition reaches its midpoint. With `CN[C@@H](C)[C@H]1[C@H](O)C[C@@]2(C)[C@@H]3C=C[C@H]4C(C)(C)[C@@H](N(C)C)CC[C@@]45C[C@@]35CC[C@]12C` [Compound 2, Cyclovirobuxeine-B], the “in vitro activity against Tbr” value in series [1] was “highly active and selective”. For the same compound, the “Pf IC50” value in series [2] (setting [7]) was found to be 1.07 ± 0.11 µg/mL. For the same compound, the IC50 in series [2] (setting [8]) is 2.6 µM; in series [3], 35.5 µM; in series [4] (setting [10]), 1.5 µM. Moreover, the “Cytotox. IC50” value in series [3] was 14.7 ± 3.1 µg/mL. In series [4] (setting [9]), the “Tbr IC50” value amounted to 0.6 ± 0.03 µg/mL.

With `C=C1C2CC[C@@H]3[C@]4(CC[C@]5(C)[C@@H](C(C)=O)[C@H](O)C[C@@]35C)C[C@]24CC[C@@H]1NC` (stereo partly drawn) [Compound 17, Cyclomicrobuxinine], the IC50 was 4.1 ± 0.8 µg/mL in series [2] (setting [11]); 10.9 µM in series [2] (setting [12]); 30.5 µg/mL and 82 µM in series [5]; 48 ± 0.2 µg/mL in series [4] (setting [13]); 129 µM in series [4] (setting [14]). Further, in series [2], the “SI Pf (selectivity index)” value stood at 7. Also, the “SI Tbr (selectivity index)” value in series [4] stood at 0.6.

As to `CC(=O)O[C@@H]1C[C@@]2(C)[C@@H]3CC[C@@H]4C(=CC[C@H](N(C)C)C4(C)C)CC3=CC[C@]2(C)[C@H]1[C@H](C)NC(=O)c1ccccc1` [Compound 23, N-benzoyl-O-acetylbuxadine-E], the IC50 in series [2] (setting [11]) was 4.2 ± 0.4 µg/mL; in series [2] (setting [12]), 7.7 µM; in series [5] (setting [15]), 27.5 ± 16 µg/mL; in series [5] (setting [16]), 50.4 µM; in series [4] (setting [13]), 3.1 ± 0.6 µg/mL; in series [4] (setting [14]) it was 5.7 µM. Also, the “SI Pf (selectivity index)” value in series [2] was 7. Further, in series [4], the “SI Tbr (selectivity index)” value was 9.

As to `CN[C@H]1CC=C2CC3=CC[C@]4(C)[C@@H]([C@H](C)NC(C)=O)CC[C@@]4(C)[C@@H]3CC[C@H]2C1(C)C` [Compound 24, N20-acetylbuxadine-G], the IC50 in series [2] (setting [11]) is 2.3 ± 0.27 µg/mL; in series [2] (setting [12]), 5.6 µM; in series [5] (setting [15]), 16.9 ± 1.1 µg/mL; in series [5] (setting [16]), 41 µM; in series [4] (setting [13]) it was 0.52 ± 0.27 µg/mL; in series [4] (setting [14]) it was 1.3 µM. The “SI Pf (selectivity index)” value in series [2] is given as 7. In addition, in series [4], the “SI Tbr (selectivity index)” value is given as 33.

Consider `CN[C@H]1CC=C2CC3=CC[C@@]4(C)[C@@](C)(CC[C@]4(O)[C@H](C)O)[C@@H]3CC[C@H]2C1(C)C` [Compound 25, 17,20-dihydroxybuxadine-M], for which the IC50 in series [2] (setting [11]) is 3.6 ± 0.05 µg/mL; in series [2] (setting [12]), 9.3 µM; in series [5] (setting [15]), 44.5 ± 5.5 µg/mL; in series [5] (setting [16]), 115 µM; in series [4] (setting [13]) it was 6.7 ± 0.49 µg/mL; in series [4] (setting [14]) it was 17.3 µM. The “SI Pf (selectivity index)” value in series [2] is given as 12. Further, in series [4], the “SI Tbr (selectivity index)” value was determined as 7.

Turning to “O-tigloylcyclovirobuxeine-B [Compound 1]”, the “in vitro activity against Pf” value in series [6] was “strong and selective in vitro activity”. Besides, the “Pf IC50” value in series [2] (setting [7]) is on record as 0.52 ± 0.14 µg/mL. Further, the IC50 was 1.05 µM in series [2] (setting [8]); 19 µM in series [3] (L6 cell line, read-out: Cytotox. IC50 (in parentheses) (converted)); 3.2 µM in series [4] (setting [10]). In addition, in series [3] (L6 cell line, mean of n = 2 (fluctuation range) or * n = 3 (SD)), the “Cytotox. IC50” value was 9.4 ± 3.8 µg/mL. For the same compound, the “Tbr IC50” value in series [4] (setting [9]) came to 1.6 ± 0.55 µg/mL.
